Where two headings read alike, the source gives them in different places.
Legend:
[1] = tested on: anti OVA-specific IgG1 subclass antibody; assay: Adjuvant activity test: anti OVA-specific IgG1 subclass antibody in serum after subcutaneous immunization with OVA; type: in vivo, BALB/c mice; settings: for production of anti OVA-specific IgG1 subclass antibody: dorsal-subcutaneous
Procedure: One week later, the secondary immunization was carried out by dorsal-subcutaneous administration of solutions similar to those of the above-mentioned (1) to (5) again. Two weeks from the secondary immunization, the whole blood and spleen were extracted under anesthesia, and the obtained serum sample was measured for anti OVA-specific IgG1 subclass antibody. A method for measurement of the anti OVA-specific IgG1 subclass antibody in Example 1, and the following Examples 2, 4, 7 to 10 and 13 to 16 is as follows.
To a 96 well plate was added 5 μg/ml OVA at 100 μl/well, and the mixture was incubated at 4° C. overnight. After incubation, the mixture was washed three times with 200 μl of PBS-T (PBS (phosphate buffered saline)+0.05% (v/v) Tween 20) per well, and blocked with 100 μl of 5% FCS (fatal calf serum)/PBS solution per well at room temperature for 1 to 2 hr. Thereafter, the mixture was washed three times with PBS-T (200 μl/well), a diluted serum sample (100 μl/well) or the same amount of 5% FCS/PBS solution as a control was added, and the mixture was incubated at 37° C. for 1 hr. Thereafter, the mixture was washed five times with PBS-T (200 μl/well), a diluted biotinylated anti-mouse IgG1 antibody (100 μl/well) was added, and the mixture was incubated at 37° C. for 45 min. Thereafter, the mixture was washed five times with PBS-T (200 μl/well), a diluted anti-biotin-HRP antibody was added (100 μl/well), and the mixture was incubated at 37° C. for another 30 min. Thereafter, the mixture was washed five times with PBS-T (200 μl/well), TMB substrate solution was added (100 μl/well), and the mixture was incubated at room temperature for 10 to 15 min. Thereafter, a reaction quenching liquid (2N sulfuric acid solution) was added (50 μl/well) to discontinue a color developing reaction, and the absorbance (OD Value=450 nm) was measured by a microplate reader.
One week later, the secondary immunization was carried out by dorsal-subcutaneous administration of solutions similar to those of the above-mentioned (1) to (6) again. Two weeks from the secondary immunization, the whole blood and spleen were extracted under anesthesia, and the obtained serum sample was measured for anti OVA-specific IgG1 subclass antibody.
8-Week-old female BALB/c mice were divided into groups (N=6), and each group was primarily immunized by dorsal-subcutaneous administration of (1) ovalbumin (OVA) ([…] administration group), (2) OVA (10 μg) and, as an adjuvant, N,N′-bis(2-heptylundecanoyl)-L-cystine dimethyl ester (SZ23) ([…]), (3) OVA (10 μg) and N,N′-bis(dodecanoyl)-L-cystine dimethyl ester (SZ24) ([…]), and (4) saline (saline single administration group), each per mouse. One week later, the secondary immunization was carried out by dorsal-subcutaneous administration of solutions similar to those of the above-mentioned (1) to (4) again. Two weeks from the secondary immunization, the whole blood was extracted under anesthesia, and the obtained serum sample was measured for anti OVA-specific IgG1 subclass antibody. SZ24 is disclosed in JP-A-4-230359, which is incorporated herein by reference in its entirety.
8-Week-old female BALB/c mice were divided into groups (N=6), and each group was primarily immunized by dorsal-subcutaneous administration of (1) ovalbumin (OVA) ([…] administration group), (2) OVA (10 μg) and, as an adjuvant, N,N′-bis(2-tetradecylhexadecanoyl)-L-cystine dimethyl ester (SZ37) (0.256 μmol) added to saline, (3) OVA (10 μg) and N,N′-bis(2-octadecyleicosanoyl)-L-cystine dimethyl ester (SZ38) (0.256 μmol) added to saline, (4) OVA (10 μg) and SZ37 (0.256 μmol) dissolved or dispersed in 5% αCD-added saline, and (5) OVA (10 μg) and SZ38 (0.256 μmol) dissolved or dispersed in 5% αCD-added saline, each per mouse. One week later, the secondary immunization was carried out by dorsal-subcutaneous administration of solutions or dispersions similar to those of the above-mentioned (1) to (5) again. […]

[2] = tested on: Human monocyte cell line THP-1; assay: Immunostimulatory effect on human monocyte cell line (CCK-8 cell proliferation, Stimulation Index); type: cell-based; settings: 24 hr, compared to well added only with medium
[3] = tested on: Mouse macrophage-like cell line RAW; assay: Immunostimulatory effect on mouse macrophage-like cell line (CCK-8 cell proliferation, Stimulation Index); type: cell-based; settings: 24 hr, compared to well added only with medium
[4] = tested on: anti OVA-specific IgE antibody; assay: Allergy induction activity test: anti OVA-specific IgE antibody in serum; type: in vivo, BALB/c mice; settings: dorsal-subcutaneous, compared to OVA single administration group
Procedure: 8-Week-old female BALB/c mice were divided into groups (N=6), and each group was primarily immunized by dorsal-subcutaneous administration of (1) ovalbumin (OVA) (10 μg) dissolved in saline as an antigen (OVA single administration group), (2) OVA (10 μg) and, as an adjuvant, N,N′-bis(2-heptylundecanoyl)-L-cystine dimethyl ester (SZ23) (2.56 μmol) (corresponding to 0.2 mg based on aluminum hydroxide gel adjuvant) dissolved in saline (SZ23; 2.56 μmol addition group), (3) OVA (10 μg) and SZ23; 0.256 μmol dissolved in saline (SZ23; 0.256 μmol addition group), (4) OVA (10 μg) and SZ23; 0.0256 μmol dissolved in saline (SZ23; 0.0256 μmol addition group), (5) OVA (10 μg) and aluminum hydroxide gel adjuvant (2.56 μmol) (0.2 mg) dissolved in saline (ALUM addition group, positive control), and (6) saline (saline single administration group), per each mouse. One week later, the secondary immunization was carried out by dorsal-subcutaneous administration of solutions similar to those of the above-mentioned (1) to (6) again. Two weeks from the secondary immunization, the whole blood and spleen were extracted under anesthesia, and the obtained serum sample was measured for anti OVA-specific IgG1 subclass antibody.
The serum sample obtained in Example 2 was measured for an anti OVA-specific IgE antibody. The measurement method of the anti OVA-specific IgE antibody is as follows.
DS mouse IgE ELISA (OVA) kit manufactured by DS Pharma Biomedical Co., Ltd. was used. The protocol is briefly shown below.
The serum sample and a standard reagent for drawing an analytical curve were diluted with a buffer and, after stirring, left standing at room temperature for 10 min. The sample and the standard solution were added to a plate bound with an IgE capture antibody in advance and, after stirring, the mixture was left standing at room temperature for 60 min. […] A reaction quenching liquid was added, the mixture was stirred, and the absorbance (OD Value=450 nm) was immediately measured.

[5] = tested on: anti-influenza IgA antibody; assay: Intranasal influenza vaccine adjuvant test: anti-influenza IgA antibody in nasal cavity wash; type: in vivo, BALB/c mice; settings: 4.92 μg with influenza vaccine 20 μl, twice, compared to influenza vaccine single administration group
Procedure: (§1) 8-Week-old female BALB/c mice were divided into groups (N=6), and each group was primarily immunized by intranasal administration of (1) saline, (2) influenza vaccine (Influenza HA Vaccine “SEIKEN”, manufactured by Denka Seiken Co. Ltd.) (20 μl) diluted with saline (influenza vaccine single administration group) as an antigen, (3) influenza vaccine (20 μl) and N,N′-bis(octadecanoyl)-L-cystine dimethyl ester (SZ35) (0.55 μg) as an adjuvant diluted with saline, (4) influenza vaccine (20 μl) and N,N′-bis(octadecanoyl)-L-cystine dimethyl ester (SZ35) (1.64 μg) as an adjuvant diluted with saline, and (5) influenza vaccine (20 μl) and N,N′-bis(octadecanoyl)-L-cystine dimethyl ester (SZ35) (4.92 μg) as an adjuvant diluted with saline, each per mouse. […] The obtained serum samples were measured for anti-influenza IgG1 subclass antibody and HI titer assay (hemagglutination inhibition test) was performed. […]
(§2) 0.5 μg/ml influenza vaccine (Influenza HA Vaccine “SEIKEN”, manufactured by Denka Seiken Co. Ltd.) was added to a 96 well plate by 100 μl per well, and the mixture was incubated at 4° C. overnight. […] Thereafter, a reaction quenching liquid (2N sulfuric acid solution) was added (50 μl/well) to discontinue a color developing reaction, and the absorbance (OD Value=450 nm) was measured by a microplate reader.

[6] = tested on: anti-influenza IgG antibody; assay: Intranasal influenza vaccine adjuvant test: anti-influenza IgG antibody in nasal cavity wash; type: in vivo, BALB/c mice; settings: 4.92 μg with influenza vaccine 20 μl, twice, compared to influenza vaccine single administration group
Procedure: as §1, §2

[7] = tested on: HA antigen (A/California/7/2009(H1N1)); type: in vivo, BALB/c mice; settings: intranasal, twice, compared to influenza vaccine single administration group
[8] = tested on: anti-influenza IgG1 subclass antibody; assay: Intranasal influenza vaccine adjuvant test: anti-influenza IgG1 subclass antibody in serum; type: in vivo, BALB/c mice; settings: twice, compared to influenza vaccine single administration group
Procedure: 8-Week-old female BALB/c mice were divided into groups (N=6), and each group was primarily immunized by intranasal administration of (1) saline, (2) influenza vaccine (Influenza HA Vaccine “SEIKEN”, manufactured by Denka Seiken Co. Ltd.) (20 μl) diluted with saline (influenza vaccine single administration group) as an antigen, (3) influenza vaccine (20 μl) and N,N′-bis(octadecanoyl)-L-cystine dimethyl ester (SZ35) (0.55 μg) as an adjuvant diluted with saline, (4) influenza vaccine (20 μl) and N,N′-bis(octadecanoyl)-L-cystine dimethyl ester (SZ35) (1.64 μg) as an adjuvant diluted with saline, and (5) influenza vaccine (20 μl) and N,N′-bis(octadecanoyl)-L-cystine dimethyl ester (SZ35) (4.92 μg) as an adjuvant diluted with saline, each per mouse. Two weeks later, the secondary immunization was carried out by intranasal administration of solutions similar to those of the above-mentioned (1) to (5) again. Two weeks from the secondary immunization, the whole blood was extracted under anesthesia, and nasal cavity washing was performed. The obtained serum samples were measured for anti-influenza IgG1 subclass antibody and HI titer assay (hemagglutination inhibition test) was performed. As a nasal cavity wash, thorax of mouse was opened to expose trachea, the trachea was incised, an Atom venous catheter with clause was inserted and 1 mL of saline was injected. The liquid discharged from the nose was centrifuged at 10000 g for 3 min, and the supernatant was recovered and used as a nasal cavity wash sample. The nasal cavity wash sample was subjected to the measurement of anti-influenza IgA antibody and IgG antibody. The measurement method was as follows.
as §2

[9] = 0.256 μmol dispersed in 5% αCD-added saline with OVA 10 μg, compared to control (OVA in 5% αCD-added saline)
[10] = 2.56 μmol in saline with OVA 10 μg, primary + secondary immunization, serum two weeks after, compared to OVA single administration group
[11] = 0.55 μg with influenza vaccine 20 μl
[12] = 1.64 μg with influenza vaccine 20 μl
[13] = 4.92 μg with influenza vaccine 20 μl

CCCCCCCCCC(CCCCCCC)C(=O)N[C@@H](CSSC[C@H](NC(=O)C(CCCCCCC)CCCCCCCCC)C(=O)OC)C(=O)OC (stereo partly drawn) [SZ23, N,N′-bis(2-heptylundecanoyl)-L-cystine dimethyl ester]
production of anti OVA-specific IgG1 subclass antibody ([1]; 0.0256 μmol in saline with OVA 10 μg, compared to OVA single administration group): significantly increased | production of anti OVA-specific IgG1 subclass antibody [1, 9]: significantly increased | production of anti OVA-specific IgG1 subclass antibody ([1]; 0.256 μmol in saline with OVA 10 μg, compared to OVA single administration group): significantly increased | production of anti OVA-specific IgG1 subclass antibody [1, 10]: significantly increased | production of anti OVA-specific IgG1 subclass antibody relative to ALUM addition group ([1]; all addition groups 2.56, 0.256 and 0.0256 μmol in saline, compared to aluminum hydroxide gel adjuvant 2.56 μmol (0.2 mg)): of the same level | cell proliferation (Stimulation Index) ([2]; THP-1, final concentration 400 nM): significant cell proliferation | cell proliferation (Stimulation Index) ([2]; THP-1, final concentration 4 μM): significant cell proliferation | cell proliferation (Stimulation Index) ([3]; final concentration 4 nM): significant cell proliferation | cell proliferation (Stimulation Index) ([3]; final concentration 400 nM): significant cell proliferation | cell proliferation (Stimulation Index) ([3]; final concentration 4 μM): significant cell proliferation | production of anti OVA-specific IgE antibody ([4]; 0.0256 μmol in saline with OVA 10 μg): not observed | production of anti OVA-specific IgE antibody ([4]; 0.256 μmol in saline with OVA 10 μg): not observed | production of anti OVA-specific IgE antibody ([4]; 2.56 μmol in saline with OVA 10 μg): not observed

CCCCCCCCCCCCCCCCCC(=O)N[C@@H](CSSC[C@H](NC(=O)CCCCCCCCCCCCCCCCC)C(=O)OC)C(=O)OC [SZ35, N,N′-bis(octadecanoyl)-L-cystine dimethyl ester]
production of anti-influenza IgA antibody in the nasal cavity wash [5]: significantly increased | production of anti OVA-specific IgG1 subclass antibody [1, 9]: significantly increased | production of anti OVA-specific IgG1 subclass antibody [1, 10]: significantly increased | production of anti-influenza IgG antibody in the nasal cavity wash [6]: significantly increased | HI antibody value in the serum [7, 11]: significantly increase | HI antibody value in the serum [7, 12]: significantly increase | HI antibody value in the serum [7, 13]: significantly increase | production of anti-influenza IgG1 subclass antibody in the serum [8, 11]: significantly increased | production of anti-influenza IgG1 subclass antibody in the serum [8, 12]: significantly increased | production of anti-influenza IgG1 subclass antibody in the serum [8, 13]: significantly increased
